Data from US20040023802A1, “Increasing plant yield and/or vigor by seed treatment with a neonicotinoid compound” (Monsanto Technology, L.L.C., priority 2002, published 2004).

Legend:
Assay type in all cases: in vivo
commercial corn hybrids = assay: Hybrid seed production (breeding station) field trial: final stand count and plot yield of corn from imidacloprid-treated seed; details: for Stand count, Imidacloprid treated / Corn yield, Imidacloprid treated: 0.165 mg/kernel + fungicide; for Stand count, Imidacloprid treated: V5 stage; for Corn yield, Imidacloprid treated: at maturity, 15% moisture; for Corn yield, Difference / Stand count, Difference: imidacloprid treated vs fungicide-only control; for Actual Yield Over Expected: yield increase vs that expected from stand improvement (about 1% per 1,000 plants/ac); for Actual Yield Over 2× of Expected: yield increase vs two-times that predicted from stand improvement
corn hybrids = assay: Field strip trials of corn yield under different tillage regimes: soil insecticide alone or plus Gaucho seed treatment
Procedure: Seed of three corn hybrids were treated with imidacloprid in the manner described in Example 3. Seed were planted using standard planting equipment in field experiments across the U.S. corn belt. All experiments were conducted as strip trials, under a variety of tillage regimes, and all trials received standard weed control and cultural practices common to commercial corn production. Plot yield was collected using standard mechanical harvesting equipment.
Soil insecticides were applied in the manner described in Example 2. Considerable increase in corn yield was also observed when corn seed treated with imidacloprid were planted in soils treated with soil-applied insecticide. The increase in yield was observed under all tillage conditions and for all the hybrids tested. Table 7 compares the yield from untreated corn seeds and corn seeds treated with imidacloprid when planted on soil treated with soil-applied insecticide. […] Soil-applied insecticides are known to be an effective method for controlling secondary insects, so the increase in corn yield was surprising.
No-Till-Tillage system refers to situations where no tillage methods are applied to the soil prior to or at planting.
Conservation/Minimum tillage refers to reduced tillage practices allowing at least 30% of soil surface to remain covered with crop residue.
Conventional Tillage refers to tillage practices where less than 30% of soil surface is covered with previous crop residue.
Such practices may include moldboard plowing, disking, or multiple field cultivation passes prior to or at planting of crop. Strip and Ridge-Till, although usually grouped in conservation tillage because of beneficial effects on soil and water retention, are grouped in conventional tillage here because the tilled zones in which the crop is planted provide an environment more similar to true conventional tillage.

[1] = tested on: isoline (non-transgenic) corn hybrids RX670 and RX601; assay: Field tests of corn yield of isoline hybrids at low pest pressure, with and without imidacloprid seed treatment; details: 60 gm per 100 kg of seed; four location/hybrid cases
Procedure: (§1) Corn hybrids with and without transgenic events expressing insecticidal proteins were evaluated for field efficacy. The hybrids that were evaluated were RX670 and RX601, each as an isoline (having no transgenic events) and each having a transgenic event expressing the Cry3Bb protein having activity against Diabrotica spp. (corn rootworm)—designated as MON853, or a transgenic event expressing the Cry3Bb protein having activity against corn rootworm—designated as MON863, or a combination of MON853 and a transgenic event expressing the Cry1A protein having activity against European corn borer—designated as MON810, or a combination of MON863 and MON810. Accordingly, an isoline and four transgenic forms were tested for each hybrid. Each type of seed was tested with and without seed treatment with 60 gm of imidacloprid per 100 kg of seed, applied in a Niklas seed treater. The isoline seeds were also tested with and without the use of conventional soil-applied insecticides, which were applied as described in Example 3.

[2] = tested on: corn hybrids RX670 and RX601 having transgenic events MON853, MON863, MON810; assay: Field trials of corn yield of transgenic seed at low pest pressure, with and without imidacloprid seed treatment; details: 60 gm per 100 kg of seed; all trials; relative absence of insect pressure
Procedure: as §1

[3] = tested on: corn rootworm; secondary insect pests of corn; assay: Insect protection of corn by imidacloprid seed treatment at 0.165 mg/kernel (stated as previously shown); details: 0.165 mg imidacloprid/kernel
[4] = hybrid B = DKC46-26, 10 locations
[5] = hybrid D = DKC51-88, 10 locations
[6] = hybrid F = LH244XLH295, 10 locations
[7] = hybrid H = HC33XLH277, 14 locations
[8] = hybrid I = DKC57-38, 14 locations
[9] = vs fungicide-treated control, 12 hybrids

O=[N+]([O-])NC1=NCCN1Cc1ccc(Cl)nc1 [Imidacloprid, imidacloprid]
Stand count, Imidacloprid treated (commercial corn hybrids; hybrid A = DK440, 10 locations): 31920 plts/ac
Corn yield, Imidacloprid treated (commercial corn hybrids; hybrid A = DK440, 10 locations): 163.5 bu/ac
Stand count, Imidacloprid treated (commercial corn hybrids; [4]): 32061 plts/ac
Corn yield, Imidacloprid treated (commercial corn hybrids; [4]): 170.8 bu/ac
Stand count, Imidacloprid treated (commercial corn hybrids; hybrid C = DK493, 10 locations): 31217 plts/ac
Corn yield, Imidacloprid treated (commercial corn hybrids; hybrid C = DK493, 10 locations): 159.6 bu/ac
Stand count, Imidacloprid treated (commercial corn hybrids; [5]): 31828 plts/ac
Corn yield, Imidacloprid treated (commercial corn hybrids; [5]): 169.4 bu/ac
Stand count, Imidacloprid treated (commercial corn hybrids; hybrid E = DK537, 10 locations): 32011 plts/ac
Corn yield, Imidacloprid treated (commercial corn hybrids; hybrid E = DK537, 10 locations): 171.2 bu/ac
Stand count, Imidacloprid treated (commercial corn hybrids; [6]): 30786 plts/ac
Corn yield, Imidacloprid treated (commercial corn hybrids; [6]): 173.1 bu/ac
Stand count, Imidacloprid treated (commercial corn hybrids; hybrid G = DK567, 14 locations): 28766 plts/ac
Corn yield, Imidacloprid treated (commercial corn hybrids; hybrid G = DK567, 14 locations): 167.5 bu/ac
Stand count, Imidacloprid treated (commercial corn hybrids; [7]): 28004 plts/ac
Corn yield, Imidacloprid treated (commercial corn hybrids; [7]): 164.6 bu/ac
Stand count, Imidacloprid treated (commercial corn hybrids; [8]): 28460 plts/ac
Corn yield, Imidacloprid treated (commercial corn hybrids; [8]): 172.3 bu/ac
Stand count, Imidacloprid treated (commercial corn hybrids; hybrid J = DK585, 14 locations): 28273 plts/ac
Corn yield, Imidacloprid treated (commercial corn hybrids; hybrid J = DK585, 14 locations): 179.5 bu/ac
Stand count, Imidacloprid treated (commercial corn hybrids; hybrid K = DK611, 14 locations): 28984 plts/ac
Corn yield, Imidacloprid treated (commercial corn hybrids; hybrid K = DK611, 14 locations): 171.3 bu/ac
Stand count, Imidacloprid treated (commercial corn hybrids; hybrid L = RX708, 14 locations): 28986 plts/ac
Corn yield, Imidacloprid treated (commercial corn hybrids; hybrid L = RX708, 14 locations): 180.7 bu/ac
Corn yield, Difference (commercial corn hybrids; hybrid A = DK440, 10 locations): 2.0 bu/ac
Stand count, Difference (commercial corn hybrids; hybrid A = DK440, 10 locations): 843.8 plts/ac
Corn yield, Difference (commercial corn hybrids; [4]): 4.1 bu/ac
Stand count, Difference (commercial corn hybrids; [4]): 439.0 plts/ac
Corn yield, Difference (commercial corn hybrids; hybrid C = DK493, 10 locations): 5.8 bu/ac
Stand count, Difference (commercial corn hybrids; hybrid C = DK493, 10 locations): 749.5 plts/ac
Corn yield, Difference (commercial corn hybrids; [5]): −0.7 bu/ac
Stand count, Difference (commercial corn hybrids; [5]): 946.8 plts/ac
Corn yield, Difference (commercial corn hybrids; hybrid E = DK537, 10 locations): 1.0 bu/ac
Stand count, Difference (commercial corn hybrids; hybrid E = DK537, 10 locations): 620.0 plts/ac
Corn yield, Difference (commercial corn hybrids; [6]): 4.7 bu/ac
Stand count, Difference (commercial corn hybrids; [6]): 1162.3 plts/ac
Corn yield, Difference (commercial corn hybrids; hybrid G = DK567, 14 locations): 3.5 bu/ac
Stand count, Difference (commercial corn hybrids; hybrid G = DK567, 14 locations): 1189.2 plts/ac
Corn yield, Difference (commercial corn hybrids; [7]): 4.8 bu/ac
Stand count, Difference (commercial corn hybrids; [7]): 39.6 plts/ac
Corn yield, Difference (commercial corn hybrids; [8]): 9.2 bu/ac
Stand count, Difference (commercial corn hybrids; [8]): 1822.2 plts/ac
Corn yield, Difference (commercial corn hybrids; hybrid J = DK585, 14 locations): 3.7 bu/ac
Stand count, Difference (commercial corn hybrids; hybrid J = DK585, 14 locations): 429.3 plts/ac
Corn yield, Difference (commercial corn hybrids; hybrid K = DK611, 14 locations): 0.1 bu/ac
Stand count, Difference (commercial corn hybrids; hybrid K = DK611, 14 locations): 1022.8 plts/ac
Corn yield, Difference (commercial corn hybrids; hybrid L = RX708, 14 locations): 6.9 bu/ac
Stand count, Difference (commercial corn hybrids; hybrid L = RX708, 14 locations): 803.7 plts/ac
increase or decrease in corn yield vs untreated seeds (FIG. 2 by hybrid, FIG. 3 by location) (commercial corn hybrids; twelve hybrids, twenty four locations): consistent and commercially important increases in corn yield
hybrid/seed treatment combinations with yield increase more than expected on the basis of stand improvement alone (commercial corn hybrids; [9]): 9 out of 12
hybrid/seed treatment combinations with yield increase over two-times that predicted on the basis of stand improvement (commercial corn hybrids; [9]): 7 out of 12
Actual Yield Over Expected (commercial corn hybrids; hybrid A = DK440): Yes
Actual Yield Over Expected (commercial corn hybrids; hybrid B = DKC46-26): Yes
Actual Yield Over Expected (commercial corn hybrids; hybrid C = DK493): Yes
Actual Yield Over Expected (commercial corn hybrids; hybrid D = DKC51-88): No
Actual Yield Over Expected (commercial corn hybrids; hybrid E = DK537): No
Actual Yield Over Expected (commercial corn hybrids; hybrid F = LH244XLH295): Yes
Actual Yield Over Expected (commercial corn hybrids; hybrid G = DK567): Yes
Actual Yield Over Expected (commercial corn hybrids; hybrid H = HC33XLH277): Yes
Actual Yield Over Expected (commercial corn hybrids; hybrid I = DKC57-38): Yes
Actual Yield Over Expected (commercial corn hybrids; hybrid J = DK585): Yes
Actual Yield Over Expected (commercial corn hybrids; hybrid K = DK611): No
Actual Yield Over Expected (commercial corn hybrids; hybrid L = RX708): Yes
Actual Yield Over 2× of Expected (commercial corn hybrids; hybrid A = DK440): No
Actual Yield Over 2× of Expected (commercial corn hybrids; hybrid B = DKC46-26): Yes
Actual Yield Over 2× of Expected (commercial corn hybrids; hybrid C = DK493): Yes
Actual Yield Over 2× of Expected (commercial corn hybrids; hybrid D = DKC51-88): No
Actual Yield Over 2× of Expected (commercial corn hybrids; hybrid E = DK537): No
Actual Yield Over 2× of Expected (commercial corn hybrids; hybrid F = LH244XLH295): Yes
Actual Yield Over 2× of Expected (commercial corn hybrids; hybrid G = DK567): No
Actual Yield Over 2× of Expected (commercial corn hybrids; hybrid H = HC33XLH277): Yes
Actual Yield Over 2× of Expected (commercial corn hybrids; hybrid I = DKC57-38): Yes
Actual Yield Over 2× of Expected (commercial corn hybrids; hybrid J = DK585): Yes
Actual Yield Over 2× of Expected (commercial corn hybrids; hybrid K = DK611): No
Actual Yield Over 2× of Expected (commercial corn hybrids; hybrid L = RX708): Yes
increase in corn yield (corn hybrids; conservation/minimum tillage): 1.6%
increase in corn yield (corn hybrids; convention tillage): 1.7%
increase in corn yield (corn hybrids; no-till cultivation): 6.3%
corn yield vs seeds without imidacloprid treatment (corn hybrids; planted on soil treated with soil-applied insecticide, all tillage conditions and hybrids): considerably higher yield
effect of imidacloprid treatment on yield for isoline corn [1]: increased by imidacloprid treatment in one-half of the cases tested
corn yield of transgenic seed treated with imidacloprid vs isolines and untreated transgenic strains [2]: higher than the isolines, and also higher than the untreated transgenic strains
protection of corn seedlings against stand reducing and growth limiting secondary insect pests [3]: effective
reduction of root injury by corn rootworm ([3]; locations with economically damaging levels of corn rootworm): not significantly reduce root injury
